Measurements taken from patent US4596893A (priority 1985, dated 1986).

What was measured:
Test in all cases: Herbicide activity test in green house
Format in all cases: in vivo
Italian grass [1] = settings: sprayed at 2-4 leaves, evaluated on 14th day
Procedure: (§1) In culture dishes white mustard, pig weed, fat hen, autumn wheat, Italian grass and corn seeds were sown. When the seeds were sprouted 10% EC and 10% WSC were prepared from the compounds to be tested, and after dilution with water 0.2% spray was prepared. 2-4 leaves plants were sprayed with this liquid so that for each compound a dose corresponding to 2.5-5-10 kg./ha active ingredient was used. On the 14th day after the treatment the extent of the injury of the plants was evaluated and expressed in %.

autumn wheat [2] = settings: sprayed at 2-4 leaves, evaluated on 14th day
Procedure: as §1

corn [3] = settings: sprayed at 2-4 leaves, evaluated on 14th day
Procedure: as §1

fat hen [4] = settings: sprayed at 2-4 leaves, evaluated on 14th day
Procedure: as §1

pig weed [5] = settings: sprayed at 2-4 leaves, evaluated on 14th day
Procedure: as §1

white mustard [6] = settings: sprayed at 2-4 leaves, evaluated on 14th day
Procedure: as §1

white mustard [7] = settings: dose 1.25 kg/ha, sprayed at 2-4 leaves, evaluated on 14th day
pig weed [8] = settings: dose 1.25 kg/ha, sprayed at 2-4 leaves, evaluated on 14th day
fat hen [9] = settings: dose 1.25 kg/ha, sprayed at 2-4 leaves, evaluated on 14th day
Italian grass [10] = settings: dose 1.25 kg/ha, sprayed at 2-4 leaves, evaluated on 14th day
autumn wheat [11] = settings: dose 1.25 kg/ha, sprayed at 2-4 leaves, evaluated on 14th day
corn [12] = settings: dose 1.25 kg/ha, sprayed at 2-4 leaves, evaluated on 14th day

| SMILES | extent of the injury of the plants, Italian grass (Italian grass [1]; dose 2.5 kg/ha) | extent of the injury of the plants, Italian grass (Italian grass [1]; dose 5.0 kg/ha) | extent of the injury of the plants, autumn wheat (autumn wheat [2]; dose 2.5 kg/ha) | extent of the injury of the plants, autumn wheat (autumn wheat [2]; dose 5.0 kg/ha) | extent of the injury of the plants, corn (corn [3]; dose 2.5 kg/ha) | extent of the injury of the plants, corn (corn [3]; dose 5.0 kg/ha) | extent of the injury of the plants, fat hen (fat hen [4]; dose 2.5 kg/ha) | extent of the injury of the plants, fat hen (fat hen [4]; dose 5.0 kg/ha) | extent of the injury of the plants, pig weed (pig weed [5]; dose 2.5 kg/ha) | extent of the injury of the plants, pig weed (pig weed [5]; dose 5.0 kg/ha) | extent of the injury of the plants, white mustard (white mustard [6]; dose 2.5 kg/ha) | extent of the injury of the plants, white mustard (white mustard [6]; dose 5.0 kg/ha) | extent of the injury of the plants, white mustard (white mustard [7]) | extent of the injury of the plants, pig weed (pig weed [8]) | extent of the injury of the plants, fat hen (fat hen [9]) | extent of the injury of the plants, Italian grass (Italian grass [10]) | extent of the injury of the plants, autumn wheat (autumn wheat [11]) | extent of the injury of the plants, corn (corn [12]) |
| --- | --- | --- | --- | --- | --- | --- | --- | --- | --- | --- | --- | --- | --- | --- | --- | --- | --- | --- |
| O=[N+]([O-])c1cc([N+](=O)[O-])c(O)c(C(F)(F)F)c1 [2-trifluoromethyl-4,6-dinitro-phenol, 2-Trifluoromethyl-4,6-dinitro-phenol] | 10% | 30% | 5% | 10% | 5% | 15% | 90% | 100% | 85% | 100% | 75% | 95% | 45% | 50% | 75% | 0% | 0% | 0% |
| O=[N+]([O-])c1cc([N+](=O)[O-])c(O)c(C(F)(F)F)c1 [2-trifluoromethyl-4,6-dinitro-phenol-K] | 10% | 15% | 0% | 15% | 10% | 15% | 90% | 100% | 85% | 100% | 75% | 90% | 65% | 45% | 70% | 0% | 0% | 0% |
| O=[N+]([O-])c1cc([N+](=O)[O-])c(O)c(C(F)(F)F)c1 [2-trifluoromethyl-4,6-dinitro-phenol-Na] | 10% | 15% | 0% | 15% | 10% | 15% | 90% | 100% | 85% | 100% | 80% | 100% | 50% | 60% | 70% | 0% | 0% | 0% |
| O=[N+]([O-])c1cc([N+](=O)[O-])c(O)c(C(F)(F)F)c1 [2-trifluoromethyl-4,6-dinitro-phenol-diethanol-amine] |  | 10% |  | 10% |  | 10% | 75% | 80% | 60% | 85% | 60% | 80% | 40% | 50% | 70% | 0% | 0% | 0% |
| CNC.O=[N+]([O-])c1cc([N+](=O)[O-])c(O)c(C(F)(F)F)c1 [2-trifluoromethyl-4,6-dinitro-phenol-dimethyl-amine] | 0% | 20% | 0% | 10% | 0% | 10% | 75% | 85% | 65% | 80% | 55% | 75% | 45% | 50% | 70% | 0% | 0% | 0% |
| CCC(=O)Oc1c([N+](=O)[O-])cc([N+](=O)[O-])cc1C(F)(F)F [2-trifluoromethyl-4,6-dinitro-phenol-ethyl carbonyl] | 0% | 10% | 0% | 10% | 0% | 10% | 70% | 80% | 60% | 80% | 50% | 80% | 40% | 40% | 60% | 0% | 0% | 0% |
| CC(=O)Oc1c([N+](=O)[O-])cc([N+](=O)[O-])cc1C(F)(F)F [2-trifluoromethyl-4,6-dinitrophenol methyl carbonyl] | 10% | 20% | 0% | 10% | 0% | 10% | 90% | 100% | 80% | 95% | 70% | 90% | 40% | 50% | 70% | 0% | 0% | 0% |
